Results as given in PubChem BioAssay AID2060897 (Molecular Pharmacology Branch, DTP, NCI, 2025).
pIC50: −log10 of the molar value. One block for each compound: values may come before it.

Tested on: 966289-007-R4-J1-PDC complex spheroid viability
Test: Anticancer human tumor 966289-007-R4-J1-PDC patient-derived pancreatic adenocarcinoma cell line growth inhibition [RAS]
Details: for pIC50: curve of first compound; for viability, T/C: stronger effect = lower value
Method in brief: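 Multi-cell-type spheroids: tumor cells plus HUVEC endothelial cells and mesenchymal stem cells. RAS-pathway inhibitors were combined with targeted agents, each dosed in half-log steps down from clinical Cmax, or from 10 microM when Cmax was unknown.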

[1] = second compound 0.000949 µM, first compound 0.0316 µM
[2] = second compound 0.000949 µM, first compound 0.1 µM
[3] = second compound 0.000949 µM, first compound 0.316 µM
[4] = second compound 0.000949 µM, first compound 1 µM
[5] = second compound 0.003 µM, first compound 0.0316 µM
[6] = second compound 0.003 µM, first compound 0.1 µM
[7] = second compound 0.003 µM, first compound 0.316 µM
[8] = second compound 0.003 µM, first compound 1 µM
[9] = second compound 0.00949 µM, first compound 0.0316 µM
[10] = second compound 0.00949 µM, first compound 0.1 µM
[11] = second compound 0.00949 µM, first compound 0.316 µM
[12] = second compound 0.00949 µM, first compound 1 µM
[13] = second compound 0.03 µM, first compound 0.0316 µM
[14] = second compound 0.03 µM, first compound 0.1 µM
[15] = second compound 0.03 µM, first compound 0.316 µM
[16] = second compound 0.03 µM, first compound 1 µM
[17] = second compound 0.0949 µM, first compound 0.0316 µM
[18] = second compound 0.0949 µM, first compound 0.1 µM
[19] = second compound 0.0949 µM, first compound 0.316 µM
[20] = second compound 0.0949 µM, first compound 1 µM
[21] = second compound 0.3 µM, first compound 0.0316 µM
[22] = second compound 0.3 µM, first compound 0.1 µM
[23] = second compound 0.3 µM, first compound 0.316 µM
[24] = second compound 0.3 µM, first compound 1 µM
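Also: spheroids exposed to agents for one week before readout.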
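For viability, T/C in this document: percent viability relative to DMSO vehicle control wells as 100%.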

pIC50 (second compound 0.000949 µM): 5.56 | pIC50 (second compound 0.003 µM): 5.31 | pIC50 (second compound 0.00949 µM): 5.29 | pIC50 (second compound 0.03 µM): 5.21 | pIC50 (second compound 0.0949 µM): 5.18 | pIC50 (second compound 0.3 µM): 5.27
Compound: CC(C)NCC(C(=O)N1CCN(c2ncnc3c2C(C)CC3O)CC1)c1ccc(Cl)cc1 (centres undefined) + CCn1c(-c2cccnc2C(C)OC)c2c3cc(ccc31)N1CCOC(CC(NC(=O)C(C(C)C)N(C)C(=O)C3(F)CCN(C(=O)C#CC(C)(C)N(C)C)CC3)C(=O)N3CCCC(N3)C(=O)OCC(C)(C)C2)C1
viability, T/C [1]: 99.4% | viability, T/C [2]: 94.4% | viability, T/C [3]: 117% | viability, T/C [4]: 85.7% | viability, T/C (second compound 0.000949 µM, first compound 3.16 µM): 46.3% | viability, T/C (second compound 0.000949 µM, first compound 10 µM): 28.5% | viability, T/C [5]: 99.2% | viability, T/C [6]: 82.3% | viability, T/C [7]: 98.9% | viability, T/C [8]: 94.6% | viability, T/C (second compound 0.003 µM, first compound 3.16 µM): 62.2% | viability, T/C (second compound 0.003 µM, first compound 10 µM): 29.4% | viability, T/C [9]: 70.3% | viability, T/C [10]: 89.2% | viability, T/C [11]: 97.2% | viability, T/C [12]: 114% | viability, T/C (second compound 0.00949 µM, first compound 3.16 µM): 62% | viability, T/C (second compound 0.00949 µM, first compound 10 µM): 33.2% | viability, T/C [13]: 57.3% | viability, T/C [14]: 72.6% | viability, T/C [15]: 103% | viability, T/C [16]: 92.4% | viability, T/C (second compound 0.03 µM, first compound 3.16 µM): 62.3% | viability, T/C (second compound 0.03 µM, first compound 10 µM): 41.1% | viability, T/C [17]: 63.9% | viability, T/C [18]: 94.5% | viability, T/C [19]: 126% | viability, T/C [20]: 90.8% | viability, T/C (second compound 0.0949 µM, first compound 3.16 µM): 75.6% | viability, T/C (second compound 0.0949 µM, first compound 10 µM): 35.9% | viability, T/C [21]: 92.5% | viability, T/C [22]: 97% | viability, T/C [23]: 107% | viability, T/C [24]: 99.9% | viability, T/C (second compound 0.3 µM, first compound 3.16 µM): 58% | viability, T/C (second compound 0.3 µM, first compound 10 µM): 40.4%

pIC50 (second compound 0.000949 µM): 8.22 | pIC50 (second compound 0.003 µM): 8.20 | pIC50 (second compound 0.00949 µM): 8.21 | pIC50 (second compound 0.03 µM): 8.20 | pIC50 (second compound 0.0949 µM): 8.16 | pIC50 (second compound 0.3 µM): 7.90
Compound: Nc1ccn(C2OC(CO)C(O)C2(F)F)c(=O)n1 (centres undefined) + CCn1c(-c2cc(N3CCN(C)CC3)cnc2C(C)OC)c2c3cc(ccc31)-c1csc(n1)CC(NC(=O)C1CC1C)C(=O)N1CCCC(N1)C(=O)OCC(C)(C)C2
viability, T/C (second compound 0.000949 µM, first compound 0.00316 µM): 97.8% | viability, T/C (second compound 0.000949 µM, first compound 0.01 µM): 12.9% | viability, T/C [1]: 1.26% | viability, T/C [2]: 0.95% | viability, T/C [3]: 1.14% | viability, T/C [4]: 1.37% | viability, T/C (second compound 0.003 µM, first compound 0.00316 µM): 102% | viability, T/C (second compound 0.003 µM, first compound 0.01 µM): 14.8% | viability, T/C [5]: 1.26% | viability, T/C [6]: 1.21% | viability, T/C [7]: 1.3% | viability, T/C [8]: 1.36% | viability, T/C (second compound 0.00949 µM, first compound 0.00316 µM): 101% | viability, T/C (second compound 0.00949 µM, first compound 0.01 µM): 13.7% | viability, T/C [9]: 1.25% | viability, T/C [10]: 1.19% | viability, T/C [11]: 1.09% | viability, T/C [12]: 1.04% | viability, T/C (second compound 0.03 µM, first compound 0.00316 µM): 97% | viability, T/C (second compound 0.03 µM, first compound 0.01 µM): 19.3% | viability, T/C [13]: 1.26% | viability, T/C [14]: 1.2% | viability, T/C [15]: 1.06% | viability, T/C [16]: 1.12% | viability, T/C (second compound 0.0949 µM, first compound 0.00316 µM): 97.2% | viability, T/C (second compound 0.0949 µM, first compound 0.01 µM): 28.2% | viability, T/C [17]: 1.31% | viability, T/C [18]: 1.32% | viability, T/C [19]: 1.4% | viability, T/C [20]: 1.29% | viability, T/C (second compound 0.3 µM, first compound 0.00316 µM): 97.6% | viability, T/C (second compound 0.3 µM, first compound 0.01 µM): 61.5% | viability, T/C [21]: 2.02% | viability, T/C [22]: 1.27% | viability, T/C [23]: 1.51% | viability, T/C [24]: 1.21%
